Experimental data published in patent US20260174875A1 (Novo Nordisk A/S, priority 2023, published 2026).
Numbered stars: 1 amine (or outer) side, 2 acyl side, 3 side chain; on linkers, the order of the positions; unused ones are H or OH. Square brackets hold non-standard residues; d marks the D form. Side chains are listed from the residue outwards. * marks the point of attachment. C20 diacid = O=C(O)CCCCCCCCCCCCCCCCCCC(=O)*; C18 diacid = O=C(O)CCCCCCCCCCCCCCCCC(=O)*; γGlu = O=C(O)[C@H](CCC(=O)[*:2])N[*:1]; AEEA = NCCOCCOCC(=O)O; Aib = CC(C)(N)C(=O)O

Molecular target: T1, human GLP-1 receptor (hGLP-1R) (Homo sapiens, UniProt P43220)
T1 construct: expressed in transfected cells
Assay: GLP-1 receptor assay, method A (CRE-luciferase reporter, BHK cells)
Type: cell-based
Conditions: hGLP-1R Potency, 1% HSA, EC50, method A, in the presence of 1% HSA
How it was run: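 Albumin sensitivity is tested by running the assay both without HSA and with 1% (w/v) HSA. Frozen BHK cells carrying hGLP-1R and CRE-driven luciferase are incubated with compound for 3 hours at 37° C. Luminescence is then read with steadylite Plus.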

T1 sequence (P43220 24-463): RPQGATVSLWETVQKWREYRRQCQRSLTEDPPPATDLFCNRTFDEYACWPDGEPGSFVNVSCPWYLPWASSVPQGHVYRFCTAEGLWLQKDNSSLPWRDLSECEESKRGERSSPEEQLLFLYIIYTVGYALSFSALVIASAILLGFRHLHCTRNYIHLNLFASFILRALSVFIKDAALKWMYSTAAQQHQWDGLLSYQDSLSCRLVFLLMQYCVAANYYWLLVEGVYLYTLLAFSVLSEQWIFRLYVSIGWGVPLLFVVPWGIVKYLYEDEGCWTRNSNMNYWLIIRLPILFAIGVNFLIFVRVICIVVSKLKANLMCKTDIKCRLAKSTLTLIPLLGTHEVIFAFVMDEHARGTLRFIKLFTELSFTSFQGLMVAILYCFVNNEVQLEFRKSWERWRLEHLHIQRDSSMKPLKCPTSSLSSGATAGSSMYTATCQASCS

Row | Substance | EC50 [nM]
1 | H[Aib]HGTFTSDYSILLEEQAAREFIEWLLAGGPSK([AEEA-AEEA-γGlu-C18 diacid])GAPPPSGGGEASHLSTAQTARLSAELHQLATLPRTETGSGSP-NH2 [compound 101] | 0.179
2 | H[Aib]HGTFTSDYSILLEEQAAREFIEWLLAGGPSK([AEEA-AEEA-γGlu-C18 diacid])GEASQLSTAALGRLSAELHQLATLPRTETGSGSP-NH2 [Compound 64] | 0.0678
3 | H[Aib]HGTFTSDYSILLEEQAAREFIEWLLAGGPSK([AEEA-AEEA-γGlu-C20 diacid])GAPPPSGGGEASELSTAALGRLSAELHELATLPRTETGSGSP-NH2 [Compound 16] | 0.238
4 | H[Aib]HGTFTSDYSILLEEQAAREFIEWLLAGGPSSGAGQAPGQAPGASHLSTAQTQRLSAELHRLK([AEEA-AEEA-γGlu-C18 diacid])TLPRTETGSGSP-NH2 [Compound 91] | 0.0174

Same assay, conditions: method A, absence of HSA; read-out: hGLP-1R Potency, no HSA, EC50

Row | Substance | EC50 [nM]
5 | H[Aib]HGTFTSDYSILLEEQAAREFIEWLLAGGPSK([AEEA-AEEA-γGlu-C18 diacid])GAPPPSGGGEASHLSTAQTARLSAELHQLATLPRTETGSGSP-NH2 [compound 101] | 0.00324
6 | H[Aib]HGTFTSDYSILLEEQAAREFIEWLLAGGPSK([AEEA-AEEA-γGlu-C18 diacid])GEASQLSTAALGRLSAELHQLATLPRTETGSGSP-NH2 [Compound 64] | 0.00371
7 | H[Aib]HGTFTSDYSILLEEQAAREFIEWLLAGGPSK([AEEA-AEEA-γGlu-C20 diacid])GAPPPSGGGEASELSTAALGRLSAELHELATLPRTETGSGSP-NH2 [Compound 16] | 0.00274
8 | H[Aib]HGTFTSDYSILLEEQAAREFIEWLLAGGPSSGAGQAPGQAPGASHLSTAQTQRLSAELHRLK([AEEA-AEEA-γGlu-C18 diacid])TLPRTETGSGSP-NH2 [Compound 91] | 0.00379

Test system: not listed separately
Assay: Pharmacokinetic study in minipigs (i.v.)
Type: in vivo, Göttingen minipigs
Conditions: female, Göttingen, minipig, plasma, iv; i.v. administration to minipigs, 2 nmol/kg; read-out: Terminal half-life t1/2 (converted)
Procedure: This is done in a pharmacokinetic (PK) study, where the terminal half-life (t1/2) of the compound or derivative in question is determined. By terminal half-life is meant the time it takes to halve a certain plasma concentration in the terminal elimination phase.
Female Göttingen minipigs, obtained from Ellegaard Göttingen Minipigs (Dalmose, Denmark), approximately 8-12 months of age and weighing approximately 20-30 kg were used in the studies.
After three weeks of acclimatisation two permanent central venous catheters were implanted in vena cava caudalis in each animal. The animals were allowed at least 10 days recovery after the surgery and were then used for repeated pharmacokinetic studies with a suitable wash-out period between successive dosing.
The compounds of the invention were formulated (40 nmol/ml) in the following vehicle: 8 mM phosphate; 250 mM glycerol; 0.007% polysorbate 20, pH 7.4.
Blood samples (for example 1.3 ml) were collected in EDTA (1.3 ml tube containing K3EDTA to yield 1.6 mg K3EDTA/ml blood) coated tubes and then centrifuged at 4° C. and 2000×g for 10 minutes.
Plasma was within 30 min after centrifugation pipetted into Micronic tubes stored on dry ice and were afterwards kept at −20° C. until analysed for plasma concentration of the compounds using LCMS.
Plasma concentrations of the peptides of the invention were assayed by plasma protein precipitation and analysed by liquid chromatography mass spectrometry (LC-MS). Calibrators were prepared by spiking blank plasma from minipigs with the compounds in the typical range from 0.05 to 200 nM. […] The supernatant was diluted with 1 volumes of Milli-Q water containing 1% Formic acid before injection on the LC-MS system. Individual plasma concentration-time profiles were analysed by a non-compartmental pharmacokinetic method (NCA) in Phoenix v. 6.4 (Pharsight Inc., Mountain View, CA, USA), and the resulting terminal half-lives (harmonic mean) determined. The LC-MS analysis was carried out using a TurboFlow HPLC system from Thermo Fisher Scientific (Bremen, Germany) coupled to either a Q Exactive Orbitrap or Altis Triple Quadrupole (TQ) Mass Spectrometer. […] The Orbitrap mass spectrometer were operating in positive ionization mode with a spray voltage of 4.0 kV using Parallel Reaction Monitoring scan mode using 5 m/z isolation windows on the most abundant charge state of the compounds with a resolution of 35K on the Orbitrap MS.
The data was processed using the Quan Browser in the Xcalibur software from Thermo Fisher Scientific (Bremen, Germany) by fitted the data to linear calibration curves (weighed 1/x^2), used for calculating the concentration in the plasma samples. Quality control samples were included.

Row | Substance | half-life [h]
9 | H[Aib]HGTFTSDYSILLEEQAAREFIEWLLAGGPSK([AEEA-AEEA-γGlu-C18 diacid])GAPPPSGGGEASHLSTAQTARLSAELHQLATLPRTETGSGSP-NH2 [compound 101] | 122
10 | H[Aib]HGTFTSDYSILLEEQAAREFIEWLLAGGPSK([AEEA-AEEA-γGlu-C18 diacid])GEASQLSTAALGRLSAELHQLATLPRTETGSGSP-NH2 [Compound 64] | 117
11 | H[Aib]HGTFTSDYSILLEEQAAREFIEWLLAGGPSK([AEEA-AEEA-γGlu-C20 diacid])GAPPPSGGGEASELSTAALGRLSAELHELATLPRTETGSGSP-NH2 [Compound 16] | 138
12 | H[Aib]HGTFTSDYSILLEEQAAREFIEWLLAGGPSSGAGQAPGQAPGASHLSTAQTQRLSAELHRLK([AEEA-AEEA-γGlu-C18 diacid])TLPRTETGSGSP-NH2 [Compound 91] | 43

Test system: not listed separately
Assay: Chemical stability assessment in formulation (UPLC-UV-MS purity loss at 37° C.)
Type: physicochemical
Conditions: 8 mM phosphate buffer pH 7.4, 1 mg/mL, 2 weeks
How it was run: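 Degradation tracked by UPLC-UV-MS (formic acid/acetonitrile gradient) on samples drawn over 2 weeks at 37° C. Solutions were made at a 1 mg/mL target in 8 mM phosphate, pH 7.4, kept in sealed vials and frozen after sampling.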

Row | Substance | Purity loss per week at 37° C. [%]
13 | H[Aib]HGTFTSDYSILLEEQAAREFIEWLLAGGPSK([AEEA-AEEA-γGlu-C18 diacid])GEASQLSTAALGRLSAELHQLATLPRTETGSGSP-NH2 [Compound 64] | 3.3
14 | H[Aib]HGTFTSDYSILLEEQAAREFIEWLLAGGPSSGAGQAPGQAPGASHLSTAQTQRLSAELHRLK([AEEA-AEEA-γGlu-C18 diacid])TLPRTETGSGSP-NH2 [Compound 91] | 2.8

Molecular target: T2, human amylin receptor (hAMYR3) (Homo sapiens, UniProt O60896+P30988)
T2 construct: host or cells: BHK cells (Hollex-1 line expressing hCTR(a) and CRE-Luc), further transfected with human RAMP3
Assay: Amylin receptor assay, method A (CRE-luciferase reporter, BHK cells)
Type: cell-based
Conditions: hAMYR3 Potency, 1% HSA, EC50, method A, in the presence of 1% HSA

T2 sequence (P30988 25-474): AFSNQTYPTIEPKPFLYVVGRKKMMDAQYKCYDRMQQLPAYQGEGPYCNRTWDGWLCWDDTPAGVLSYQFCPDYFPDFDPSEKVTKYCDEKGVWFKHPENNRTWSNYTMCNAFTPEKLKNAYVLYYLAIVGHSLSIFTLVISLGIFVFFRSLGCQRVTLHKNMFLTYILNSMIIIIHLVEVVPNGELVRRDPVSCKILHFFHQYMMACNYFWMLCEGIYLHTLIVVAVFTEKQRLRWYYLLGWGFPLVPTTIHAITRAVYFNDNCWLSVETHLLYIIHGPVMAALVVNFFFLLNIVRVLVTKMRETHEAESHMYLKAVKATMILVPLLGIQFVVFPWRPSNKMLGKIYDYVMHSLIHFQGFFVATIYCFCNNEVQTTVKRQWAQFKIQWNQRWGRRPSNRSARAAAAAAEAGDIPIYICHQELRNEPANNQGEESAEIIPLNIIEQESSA
T2 sequence (O60896 24-148): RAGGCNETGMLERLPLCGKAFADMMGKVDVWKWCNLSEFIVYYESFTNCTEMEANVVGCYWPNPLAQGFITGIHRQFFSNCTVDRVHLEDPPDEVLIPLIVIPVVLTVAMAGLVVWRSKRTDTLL

Row | Substance | EC50 [nM]
15 | H[Aib]HGTFTSDYSILLEEQAAREFIEWLLAGGPSK([AEEA-AEEA-γGlu-C18 diacid])GAPPPSGGGEASHLSTAQTARLSAELHQLATLPRTETGSGSP-NH2 [compound 101] | 0.0955
16 | H[Aib]HGTFTSDYSILLEEQAAREFIEWLLAGGPSK([AEEA-AEEA-γGlu-C18 diacid])GEASQLSTAALGRLSAELHQLATLPRTETGSGSP-NH2 [Compound 64] | 0.109
17 | H[Aib]HGTFTSDYSILLEEQAAREFIEWLLAGGPSK([AEEA-AEEA-γGlu-C20 diacid])GAPPPSGGGEASELSTAALGRLSAELHELATLPRTETGSGSP-NH2 [Compound 16] | 0.166
18 | H[Aib]HGTFTSDYSILLEEQAAREFIEWLLAGGPSSGAGQAPGQAPGASHLSTAQTQRLSAELHRLK([AEEA-AEEA-γGlu-C18 diacid])TLPRTETGSGSP-NH2 [Compound 91] | 0.0288

Same assay, conditions: method A, absence of HSA; read-out: hAMYR3 Potency, no HSA, EC50

Row | Substance | EC50 [nM]
19 | H[Aib]HGTFTSDYSILLEEQAAREFIEWLLAGGPSK([AEEA-AEEA-γGlu-C18 diacid])GAPPPSGGGEASHLSTAQTARLSAELHQLATLPRTETGSGSP-NH2 [compound 101] | 0.00308
20 | H[Aib]HGTFTSDYSILLEEQAAREFIEWLLAGGPSK([AEEA-AEEA-γGlu-C18 diacid])GEASQLSTAALGRLSAELHQLATLPRTETGSGSP-NH2 [Compound 64] | 0.00191
21 | H[Aib]HGTFTSDYSILLEEQAAREFIEWLLAGGPSK([AEEA-AEEA-γGlu-C20 diacid])GAPPPSGGGEASELSTAALGRLSAELHELATLPRTETGSGSP-NH2 [Compound 16] | 0.0057
22 | H[Aib]HGTFTSDYSILLEEQAAREFIEWLLAGGPSSGAGQAPGQAPGASHLSTAQTQRLSAELHRLK([AEEA-AEEA-γGlu-C18 diacid])TLPRTETGSGSP-NH2 [Compound 91] | 0.00226
